We go through six compounds from publication PMC5039532, “Design and Synthesis of Analogues of Marine Natural Product Galaxamide, an N-methylated Cyclic Pentapeptide, as Potential Anti-Tumor Agent in Vitro” (Marine Drugs, 2016).

Structures are written as SMILES. Values after ≈ are worked out from the molar mass of the structure shown. Where a SMILES comes first, the peptide text is derived from it. [ ]: non-standard residue; d: D form. NMeL = CN[C@@H](CC(C)C)C(=O)O

In assay [1] the test system is human hepatocellular carcinoma HepG2. Format: cell-based. The conditions noted are these: 48 h. Here is the method: (§1) Lung cancer A549, drug-resistant lung cancer A549-DPP, human hepatocellular carcinoma HepG2 and hepatocellular carcinoma SMMC-7721 cells obtained from the China cell bank of the Institute of Biochemistry and were cultured in DMEM culture medium (DMEM, Corning, NY, USA) containing 10% fetal bovine serum (FBS, Hyclone, Logan, UT, USA), 1% penicillin-streptomycin and an antifungal agent in a 5% CO2 humidified atmosphere at 37 °C. The culture medium was replaced once in a day. Trypsin digestion method was adopted for cell propagation. Upon reaching 80%–90% confluence, the cells were rinsed twice with PBS. A certain amount of 0.25% trypsin digestion solution was then added and maintained for 3–5 min at 37 °C. Afterward, DMEM culture medium containing 10% fetal bovine serum was added to terminate the digestion. The cells were then blown well to form single cell suspensions.
(§2) The cell viability was determined by measuring the ability of cells to transform MTT (Genview, Houston, TX, USA) to a purple formazan dye. The cells were seeded in 96-well tissue culture plates at 2.5 × 10^3 cells/well for 24 h. The cells were then incubated with galaxamide and its analogues for 48 h. After incubation, 20 μL/well of MTT solution (5 mg/mL phosphate buffered saline) were added and incubated for 5 h. The medium was aspirated and replaced with 100 μL/well of DMSO to dissolve the formazan salt. The color intensity of the formazan solution, which reflects the cell growth condition, was measured at 570 nm using a microplate spectrophotometer (SpectroAma™ 250, Winooski, VT, USA).

In assay [2] the test system is SMMC-7721 cells. The assay can be described thus: Cell cycle analysis by PI staining and flow cytometry. Format: cell-based, human. Conditions: 4, 8 and 16 μg/mL, 48 h. How it is done: SMMC-7721 cells with the density of about 1.5 × 10^5 were incubated with galaxamide and representative analogues (4, 8, 16 μg/mL) for 48 h. Afterwards, collected cells were washed twice with PBS and centrifugation (1000 rpm, 5 min), then fixed using 70% ethanol for 12 h at 4 °C. Ethanol was removed by centrifugation (2000 rpm, 5 min), and the cells were washed twice with PBS. Cells were then resuspended in […] PI and kept at 37 °C for 15 min. The cell cycle was analyzed by flow cytometry measuring the amount of PI-labeled DNA in fixed cells.
(A flow cytometer gives signals particle by particle.)

Assay [3] has as its system hepatocellular carcinoma SMMC-7721 cells. The format is cell-based, human. The conditions noted are these: 48 h. Here is the method: as §1, §2
Assay [4] concerns Lung cancer cell line A549. Format: cell-based, human. Conditions: 48 h. How it is done: as §1, §2
For assay [5], the system named is drug-resistant lung cancer cell line A549/DPP. The format is cell-based, human. The conditions noted are these: 48 h. How it is done: as §1, §2
Assay [6] has as its system SMMC-7721 cells. The assay can be described thus: Cell apoptotic analysis, annexin V/PI staining, flow cytometry. Format: cell-based, human. The conditions noted are these: 4, 8 and 16 μg/mL, 48 h, annexin V/PI double staining. Here is the method:
The apoptotic cells were quantified using an Annexin V-FITC (Sigma-Aldrich, St. Louis, MO, USA) cell apoptosis assay kit according to instruction provided with kit. In brief, about 1.5 × 10^5 cells were plated in 6-well plates and treated with galaxamide and representative analogues (4, 8, 16 μg/mL) for 48 h. The cells were resuspended in […] binding buffer. Afterward, […] annexin V-fluorescein isothiocyanate (FITC) was added and then incubated in darkness at room temperature for 10 min. The cells were again resuspended in […] binding buffer and stained with […] PI. The prepared cells were then analyzed using a flow cytometry (Coulter Epics Elite, Miami, FL, USA). The cells in the FITC-positive and PI-negative fraction were regarded as apoptotic cells.

Assay [7] deals with SMMC-7721 cells. Nature of the assay: Cell morphological observation, Hoechst33342 staining. The format is cell-based, human. The conditions noted are these: 4, 8 and 16 μg/mL, 48 h, fluorescence microscopy. Here is the method:
Exponentially growing SMMC-7721 cells (1 × 10^5 cells/mL) were incubated for 48 h with 4, 8, 16 μg/mL of galaxamide and representative analogues. Apoptotic nuclear morphology was visualized by the Hoechsst33342 staining technique. Cells were fixed with 3.7% of paraformaldehyde for 10 min at room temperature and washed three times with PBS. After fixation, cells were stained using Hoechsst33342 (10 μg/mL) and incubated in the darkness for 10 min. After washing three times with PBS, cells were visualized using fluorescence microscope.

With `CC(C)C[C@@H]1NC(=O)[C@H](CC(C)C)NC(=O)[C@@H](Cc2ccccc2)NC(=O)[C@H](CC(C)C)N(C)C(=O)[C@@H](CC(C)C)NC1=O` [Compound 22, cyclo(D-Phe-Leu-Leu-D-Leu-N-Me-Leu)], in assay [1], the “IC50 Value HepG2” value came to 6.41 µg/mL (≈ 10.4 µM). Moreover, in the assay with SMMC-7721 cells [2], the “cell-cycle arrest (in words)” value is reported as “arresting the cell cycle in the G0/G1 phase”. For the same compound, the “IC50 Value SMMC-7721” value in assay [3] amounted to 1.44 µg/mL (≈ 2.35 µM). For the same compound, the “IC50 Value A549” value in assay [4] came out at 9.4 µg/mL (≈ 15.3 µM). Besides, the “IC50 Value A549-DPP” value in assay [5] came out at 12.22 µg/mL (≈ 19.9 µM). Also, in the assay with SMMC-7721 cells [6], the “induction of apoptosis (in words)” value was “induced SMMC-7721 cell apoptosis in dose-dependent manner”. Besides, the “morphological changes (in words)” value in the assay with SMMC-7721 cells [7] is “resulted in cell detachment from cell culture plates”.
`CC(C)C[C@@H]1NC(=O)[C@H](CC(C)C)N(C)C(=O)[C@H](CC(C)C)NC(=O)[C@@H](CC(C)C)N(C)C(=O)[C@@H](Cc2ccccc2)NC1=O` [Compound 19, cyclo(D-Phe-D-N-Me-Leu-Leu-N-Me-Leu-Leu)]: the “IC50 Value HepG2” value in assay [1] was found to be 4.25 µg/mL (≈ 6.77 µM). Besides, the “IC50 Value SMMC-7721” value in assay [3] came out at 2.7 µg/mL (≈ 4.3 µM). In addition, the “IC50 Value A549” value in assay [4] was found to be 5.21 µg/mL (≈ 8.3 µM). For the same compound, in assay [5], the “IC50 Value A549-DPP” value worked out at 17.73 µg/mL (≈ 28.2 µM).
As to `CC(C)C[C@@H]1NC(=O)[C@@H](Cc2ccccc2)NC(=O)[C@H](CC(C)C)N(C)C(=O)[C@H](CC(C)C)NC(=O)[C@@H](CC(C)C)NC1=O` [Compound 23, cyclo(D-Phe-Leu-D-Leu-Leu-N-Me-Leu)], the “IC50 Value HepG2” value in assay [1] was 26.62 µg/mL (≈ 43.4 µM). Further, the “IC50 Value SMMC-7721” value in assay [3] worked out at 4.32 µg/mL (≈ 7.04 µM). Further, in assay [4], the “IC50 Value A549” value was 5.85 µg/mL (≈ 9.53 µM). The “IC50 Value A549-DPP” value in assay [5] stood at 9.13 µg/mL (≈ 14.9 µM).
Take `CC(C)C[C@@H]1NC(=O)[C@H](CC(C)C)N(C)C(=O)[C@H](CC(C)C)NC(=O)[C@H](CC(C)C)N(C)C(=O)[C@H](CC(C)C)NC1=O` [Galaxamide, galaxamide] (cyclo(LL[NMeL]L[NMeL])): the “cell-cycle arrest (in words)” value in the assay with SMMC-7721 cells [2] is listed as “arresting the cell cycle in the G0/G1 phase”. In the assay with SMMC-7721 cells [7], the “morphological changes (in words)” value is listed as “resulted in cell detachment from cell culture plates”.
In the case of `CC(C)C[C@@H]1NC(=O)[C@H](CC(C)C)N(C)C(=O)[C@@H](Cc2ccccc2)NC(=O)[C@@H](CC(C)C)N(C)C(=O)[C@H](CC(C)C)NC1=O` [Compound 26, cyclo(D-Phe-N-Me-Leu-Leu-Leu-D-N-Me-Leu)], in assay [1], the “IC50 Value HepG2” value was 7.12 µg/mL (≈ 11.3 µM). Moreover, the “IC50 Value SMMC-7721” value in assay [3] stood at 6.65 µg/mL (≈ 10.6 µM). Besides, the “IC50 Value A549” value in assay [4] amounted to 4.27 µg/mL (≈ 6.8 µM). In addition, the “IC50 Value A549-DPP” value in assay [5] was determined as 11.33 µg/mL (≈ 18 µM).
`CC(C)C[C@@H]1NC(=O)[C@H](Cc2ccccc2)NC(=O)[C@@H](CC(C)C)N(C)C(=O)[C@H](CC(C)C)NC(=O)[C@H](CC(C)C)NC1=O` [Compound 24, cyclo(Phe-Leu-Leu-Leu-D-N-Me-Leu)]: in assay [1], the “IC50 Value HepG2” value was 7.92 µg/mL (≈ 12.9 µM). The “IC50 Value SMMC-7721” value in assay [3] was 7.04 µg/mL (≈ 11.5 µM). The “IC50 Value A549” value in assay [4] was determined as 3.45 µg/mL (≈ 5.62 µM). In addition, the “IC50 Value A549-DPP” value in assay [5] turned out to be 9.26 µg/mL (≈ 15.1 µM).
